Reference: article PMC8805583, “Discovery of Herbacetin as a Novel SGK1 Inhibitor to Alleviate Myocardial Hypertrophy” (Advanced Science, 2021)

How the values were obtained:
[1] = tested on: ISO mice; assay: ISO-induced cardiac hypertrophy in mice; assay type: in vivo
Procedure: Finally, we assessed the cardioprotective effect of HBT in mice infused with the hypertrophic agonist isoproterenol (ISO). Mice were challenged with ISO for 21 days via subcutaneous injection and then were administered with 10 mg kg^−1 of HBT once per day until the mice were sacrificed (Figure 7A).
For isoproterenol (ISO)‐mediated cardiac hypertrophy, mice were randomly divided into 3 groups, control group (Ctrl), ISO group and ISO plus HBT group (HBT), 5 mg kg^−1 day^−1 ISO was given for 21 days by subcutaneous injection. The control mice were treated with 1% DMSO‐vehicle. At the same time, male C57BL/6 mice in HBT group were intraperitoneally injected with 10 mg kg^−1 d^−1 HBT diluted with a solution containing 1% DMSO and 99% saline. Echocardiography was performed on conscious mice using a Vevo 2100 system. M‐mode images of the left ventricular short axis were captured. After echocardiography evaluation, the mice were anesthetized via intraperitoneal injection of 240 mg kg^−1 pentobarbital sodium and were euthanized by excising the heart rapidly.

[2] = target: T1, SGK1 (Homo sapiens, UniProt O00141); assay: Mass spectrometry-based SGK1 kinase inhibitory assay (LC/MS of phosphorylated […]); assay type: biochemical; conditions: MS-based kinase inhibitory assay
T1 sequence (O00141 1-431): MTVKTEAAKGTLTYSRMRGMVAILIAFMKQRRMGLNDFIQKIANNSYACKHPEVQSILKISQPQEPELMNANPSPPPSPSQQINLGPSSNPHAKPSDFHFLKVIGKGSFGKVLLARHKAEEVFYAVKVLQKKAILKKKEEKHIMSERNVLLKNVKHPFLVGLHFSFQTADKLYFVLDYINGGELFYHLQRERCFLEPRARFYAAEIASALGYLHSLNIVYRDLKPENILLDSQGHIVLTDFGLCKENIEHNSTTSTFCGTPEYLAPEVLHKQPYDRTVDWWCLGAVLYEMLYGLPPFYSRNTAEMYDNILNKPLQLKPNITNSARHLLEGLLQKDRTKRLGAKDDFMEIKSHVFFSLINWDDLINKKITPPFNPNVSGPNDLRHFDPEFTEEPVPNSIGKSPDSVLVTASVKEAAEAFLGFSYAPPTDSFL
Text: To identify active compounds with SGK1 inhibitory activity from Ext.R, a novel mass‐spectrometry based kinase inhibitory assay was developed. A polypeptide sequence ([…], m/z: 618.6) derived from glycogen Synthase Kinase‐3(GSK3), a known substrate of SGK1, was optimized and synthesized. We subsequently used liquid chromatography coupled with mass spectrometry (LC/MS) to detect and quantify its phosphorylation level ([…](p)FAE, m/z:658.7) (Figure 3A).^[ [26] ^] Basal level SGK1 was supplemented to each well, and the peak area of phosphorylation was measured in the presence or absence of testing compounds. […] After investigating the major chemical constituents in Ext.R (Table S3, Supporting Information), a set of compounds in Ext.R were subsequently screened for their impacts on SGK1 activity. […] The direct interaction between HBT and SGK1 was further verified by temperature‐ and dose‐dependent cellular thermal shift assays (Figure 3E,F). We further performed a direct binding assay of HBT to SGK1 by KINOMEscan assay (Eurofins Discovery).
Synthesis of […] was prepared by Shanghai Sangong Biotech. In order to ensure the phosphorylation reaction of SGK1, SGK1 (0.25 µg mL^−1) was added to kinase buffer (25 mmol Tris [pH 7.5], 5 mmol β‐glycerolphosphate, 2 mmol DTT, 10 mmol MgCl2) with the substrate peptide […] (25 µmol) and ATP (200 µmol) and incubated for 1 h at 30 °C in the presence or absence of inhibitors. A concentration‐dependent assay for SGK1 at different concentrations (0.05, 0.1, 0.2, 0.25, and 0.3 µg mL^−1) was performed. Reactions were terminated by the addition of methyl alcohol with 0.1% trifluoroacetic acid (TFA), and supernatants were analyzed by the Agilent 1100 LC system (Agilent Technologies, USA) and a 1946D single quadrupole mass spectrometer. The acquisition parameters for LC/MS were set for positive ionization mode and selected ion monitoring (SIM) m/z values of 618.6 and 658.7 for the substrate peptide and product peptide respectively. Chromatographic separation was performed by a reversed‐phase ZORBAX SB‐C18 analytical column. The mobile phase included water containing 0.1% v/v TFA (A) and acetonitrile containing 0.1% v/v TFA (B). The flow rate was 0.6 mL min^−1. A gradient program was carried out according to the following profile: 0 min, 13% B; 15 min, 28% B; 16 min, 100% B. The constituents of Ext.R were screened by the assay to evaluate their inhibitory effects on SGK1 activity. A minimum of three replicates of each sample were analyzed and averaged together. Inhibition of SGK1 was calculated by the following equation (1) Inhibitionrate%=PC−PS/PC P C and P S represented the peak area of product peptide in the control group without test compounds and the tested sample group with various test compounds, respectively.

Structure (SMILES): O=c1c(O)c(-c2ccc(O)cc2)oc2c(O)c(O)cc(O)c12 [HBT, herbacetin]
- toxicity ([1]; 10 mg kg−1 d−1 for 21 days): without causing any significant toxicity
- left ventricular ejection fraction (EF%) and fraction shortening (FS%) ([1]; ISO 5 mg kg−1 d−1 21 days, HBT 10 mg kg−1 d−1 intraperitoneally): increased
- decreased Bcl-2 and MnSOD levels ([1]; ISO mice): almost completely reversed
- serum NT-proBNP ([1]; ISO mice, ELISA): decreased level
- heart weight/tibial length (HW/TL) ([1]; ISO mice, HBT 10 mg kg−1): reduce the HW/TL level
- left ventricular volume (LV Vol;d and LV Vol;s) ([1]; ISO mice, HBT 10 mg kg−1): decreased
- accumulation of collagen fibrosis ([1]; ISO mice, Masson's staining): reduced
- expression of p-SGK1, α-SMA and Col-3 ([1]; ISO mice, western blot): reduced expression
- FoxO1 phosphorylation, STIM1 and Orai1 protein expression in heart tissue ([1]; ISO mouse model): significantly decreased
- level of HO-1 and Nrf2 in heart tissue ([1]; ISO mouse model): increased
- IC50 [2]: 752 nM
